Measured values: ChEMBL document CHEMBL5625161, “Pharmacological activity and mechanism of pyrazines” (Eur J Med Chem, 2023)
pIC50: −log10 of the molar value. Values after ≈ are worked out from the molar mass of the structure shown. One block for each compound: values may come before it.

Tests used:
Histone deacetylase 3 = Histone deacetylase 3 (Homo sapiens, UniProt O15379); assay: Inhibition of human recombinant HDAC3
Histone deacetylase 1 = Histone deacetylase 1 (Homo sapiens, UniProt Q13547); assay: Inhibition of human recombinant HDAC1
Histone deacetylase 1, sequence (Q13547 whole entry): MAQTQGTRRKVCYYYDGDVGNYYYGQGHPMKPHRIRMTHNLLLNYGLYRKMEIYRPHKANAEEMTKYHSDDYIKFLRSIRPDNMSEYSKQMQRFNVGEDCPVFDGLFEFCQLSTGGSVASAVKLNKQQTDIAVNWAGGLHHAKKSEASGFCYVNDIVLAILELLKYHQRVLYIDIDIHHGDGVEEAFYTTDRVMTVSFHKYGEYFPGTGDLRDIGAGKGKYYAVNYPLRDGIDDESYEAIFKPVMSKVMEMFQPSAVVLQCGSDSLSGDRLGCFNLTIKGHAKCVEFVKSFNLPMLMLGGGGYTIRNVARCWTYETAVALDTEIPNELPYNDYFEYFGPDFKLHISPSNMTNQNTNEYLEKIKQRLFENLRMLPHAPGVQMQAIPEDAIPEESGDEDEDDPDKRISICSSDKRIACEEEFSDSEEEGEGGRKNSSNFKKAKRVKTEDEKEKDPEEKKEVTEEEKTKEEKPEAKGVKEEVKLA

Histone deacetylase 2 = Histone deacetylase 2 (Homo sapiens, UniProt Q92769); assay: Inhibition of human recombinant HDAC2
Histone deacetylase 2, sequence (Q92769 whole entry): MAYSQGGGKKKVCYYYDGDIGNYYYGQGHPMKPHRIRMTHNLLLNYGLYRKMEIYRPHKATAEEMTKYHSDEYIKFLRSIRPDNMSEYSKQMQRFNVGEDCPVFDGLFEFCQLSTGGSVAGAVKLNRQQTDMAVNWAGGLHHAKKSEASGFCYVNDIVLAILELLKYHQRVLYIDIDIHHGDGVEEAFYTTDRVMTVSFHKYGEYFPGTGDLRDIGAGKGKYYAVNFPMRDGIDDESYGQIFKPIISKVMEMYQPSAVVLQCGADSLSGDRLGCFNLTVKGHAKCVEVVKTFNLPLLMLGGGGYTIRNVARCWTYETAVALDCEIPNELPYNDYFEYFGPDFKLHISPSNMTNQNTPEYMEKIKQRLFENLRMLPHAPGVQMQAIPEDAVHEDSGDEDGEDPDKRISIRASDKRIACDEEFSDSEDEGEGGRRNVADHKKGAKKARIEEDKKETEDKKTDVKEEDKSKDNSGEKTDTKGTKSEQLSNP

Cholinesterase = Cholinesterase (Homo sapiens, UniProt P06276); assay: Inhibition of BchE (unknown origin)
Cholinesterase, sequence (P06276 whole entry): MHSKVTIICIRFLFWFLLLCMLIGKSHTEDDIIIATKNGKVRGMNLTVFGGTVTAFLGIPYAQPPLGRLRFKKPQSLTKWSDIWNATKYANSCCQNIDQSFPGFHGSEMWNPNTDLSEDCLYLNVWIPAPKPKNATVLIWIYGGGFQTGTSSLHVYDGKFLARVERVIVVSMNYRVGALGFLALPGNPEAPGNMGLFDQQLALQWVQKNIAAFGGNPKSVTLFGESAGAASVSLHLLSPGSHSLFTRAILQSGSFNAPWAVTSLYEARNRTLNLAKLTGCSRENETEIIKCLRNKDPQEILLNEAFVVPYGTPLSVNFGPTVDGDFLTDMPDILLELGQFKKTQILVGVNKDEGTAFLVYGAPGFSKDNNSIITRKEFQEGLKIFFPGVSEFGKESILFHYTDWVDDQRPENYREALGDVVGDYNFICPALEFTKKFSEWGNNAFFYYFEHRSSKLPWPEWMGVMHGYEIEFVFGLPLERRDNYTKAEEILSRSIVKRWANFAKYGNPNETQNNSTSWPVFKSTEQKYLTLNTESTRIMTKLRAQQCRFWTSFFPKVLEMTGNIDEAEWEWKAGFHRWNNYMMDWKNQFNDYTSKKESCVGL

Acetylcholinesterase = Acetylcholinesterase (Homo sapiens, UniProt P22303); assay: Inhibition of AChE (unknown origin)
Acetylcholinesterase, sequence (P22303 whole entry): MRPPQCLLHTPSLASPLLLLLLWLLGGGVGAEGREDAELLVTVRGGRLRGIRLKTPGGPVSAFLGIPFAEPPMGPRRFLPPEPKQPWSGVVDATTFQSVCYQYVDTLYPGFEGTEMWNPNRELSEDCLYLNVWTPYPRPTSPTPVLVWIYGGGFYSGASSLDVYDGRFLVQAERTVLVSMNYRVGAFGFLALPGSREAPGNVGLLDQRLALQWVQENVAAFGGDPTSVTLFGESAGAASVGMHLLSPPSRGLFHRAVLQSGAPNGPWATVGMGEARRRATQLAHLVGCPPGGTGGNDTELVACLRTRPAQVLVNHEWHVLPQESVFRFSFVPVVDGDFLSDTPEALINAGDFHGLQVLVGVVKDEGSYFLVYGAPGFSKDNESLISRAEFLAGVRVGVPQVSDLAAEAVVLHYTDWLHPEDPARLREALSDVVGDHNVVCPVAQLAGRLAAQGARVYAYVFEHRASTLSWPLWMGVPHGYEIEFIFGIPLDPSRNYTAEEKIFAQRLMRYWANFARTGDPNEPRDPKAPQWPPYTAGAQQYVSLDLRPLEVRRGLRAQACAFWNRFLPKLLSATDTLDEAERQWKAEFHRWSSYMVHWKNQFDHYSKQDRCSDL

H322 = assay: Antiproliferative activity against human H322 cells assessed as reduction in cell viability incubated for 48 hrs by SRB assay; format: functional, cell-based; conditions: NCI-H322, 48 h
A549 [1] = assay: Antiproliferative activity against human A549 cells assessed as reduction in cell viability incubated for 48 hrs by SRB assay; format: functional, cell-based; conditions: A549, 48 h
SW 1116 = assay: Antiproliferative activity against human SW 1116 cells assessed as reduction in cell growth incubated for 48 hrs by MTT assay; format: functional, cell-based; conditions: SW 1116, 48 h
[2] = biological target: Telomerase reverse transcriptase (Homo sapiens, UniProt O14746); assay: Inhibition of telomerase (unknown origin)
Telomerase reverse transcriptase, sequence (O14746 whole entry): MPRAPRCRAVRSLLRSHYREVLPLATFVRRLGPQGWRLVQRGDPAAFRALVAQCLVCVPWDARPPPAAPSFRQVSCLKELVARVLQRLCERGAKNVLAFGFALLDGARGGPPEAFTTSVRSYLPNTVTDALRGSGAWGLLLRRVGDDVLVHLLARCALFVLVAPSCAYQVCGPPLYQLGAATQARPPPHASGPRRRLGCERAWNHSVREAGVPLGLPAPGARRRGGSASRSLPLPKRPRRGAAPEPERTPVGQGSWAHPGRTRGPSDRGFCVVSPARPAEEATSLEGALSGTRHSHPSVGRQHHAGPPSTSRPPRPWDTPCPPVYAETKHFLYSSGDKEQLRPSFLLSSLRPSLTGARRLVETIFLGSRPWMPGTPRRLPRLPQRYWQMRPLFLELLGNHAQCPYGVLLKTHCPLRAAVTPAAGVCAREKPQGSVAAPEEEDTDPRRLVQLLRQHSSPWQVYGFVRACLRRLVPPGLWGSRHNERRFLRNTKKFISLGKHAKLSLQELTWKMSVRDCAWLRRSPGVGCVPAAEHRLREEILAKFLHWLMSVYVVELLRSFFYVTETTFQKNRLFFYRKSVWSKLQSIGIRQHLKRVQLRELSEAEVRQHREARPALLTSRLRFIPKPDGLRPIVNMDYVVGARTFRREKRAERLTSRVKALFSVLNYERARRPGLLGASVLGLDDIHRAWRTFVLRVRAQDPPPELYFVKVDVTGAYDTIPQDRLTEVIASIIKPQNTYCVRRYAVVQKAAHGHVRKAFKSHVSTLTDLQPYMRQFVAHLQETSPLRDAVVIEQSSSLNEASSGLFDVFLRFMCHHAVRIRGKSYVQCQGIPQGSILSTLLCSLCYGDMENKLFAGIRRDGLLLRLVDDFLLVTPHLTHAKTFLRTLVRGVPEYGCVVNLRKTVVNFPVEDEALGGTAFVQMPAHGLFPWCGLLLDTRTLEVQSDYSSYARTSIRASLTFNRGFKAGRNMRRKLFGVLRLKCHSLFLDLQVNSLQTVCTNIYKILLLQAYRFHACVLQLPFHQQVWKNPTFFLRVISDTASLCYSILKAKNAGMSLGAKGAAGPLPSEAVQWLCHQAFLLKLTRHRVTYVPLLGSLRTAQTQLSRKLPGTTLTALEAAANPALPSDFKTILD

[3] = Cytotoxicity against African green monkey Vero cells incubated for 48 hrs by SRB colorimetric assay; format: toxicity, cell-based, Chlorocebus sabaeus
MCF7 = assay: Antiproliferative activity against human MCF7 cells assessed as inhibition of cell growth at 10 uM incubated for 48 hrs by SRB assay relative to control; format: functional; parameters: scale not given: the % may be the effect or the level left
HeLa = assay: Antiproliferative activity against human HeLa cells assessed as reduction in cell viability incubated for 24 hrs by MTT assay; format: functional, cell-based
PC-3 [4] = assay: Antiproliferative activity against human PC-3 cells assessed as reduction in cell viability incubated for 24 hrs by MTT assay; format: functional, cell-based; conditions: PC-3, 24 h
HT-29 = assay: Antiproliferative activity against human HT-29 cells assessed as reduction in cell viability incubated for 24 hrs by MTT assay; format: functional, cell-based; conditions: HT-29, 24 h
OVCAR-5 = assay: Cytotoxicity against human OVCAR-5 cells assessed as reduction in cell growth incubated for 72 hrs by CCK-8 assay; format: functional, cell-based; conditions: OVCAR-5, 72 h
NCI-H460 = assay: Cytotoxicity against human NCI-H460 cells assessed as reduction in cell growth incubated for 72 hrs by CCK-8 assay; format: functional, cell-based; conditions: NCI-H460, 72 h
A549 [5] = assay: Cytotoxicity against human A549 cells assessed as reduction in cell growth incubated for 72 hrs by CCK-8 assay; format: functional, cell-based; conditions: A549, 72 h
SK-OV-3 = assay: Cytotoxicity against human SK-OV-3 cells assessed as reduction in cell growth incubated for 72 hrs by CCK-8 assay; format: functional, cell-based; conditions: SK-OV-3, 72 h
SW626 = assay: Cytotoxicity against human SW626 cells assessed as reduction in cell growth incubated for 72 hrs by CCK-8 assay; format: functional, cell-based; conditions: SW626, 72 h
HEY = assay: Cytotoxicity against human HEY cells assessed as reduction in cell growth incubated for 72 hrs by CCK-8 assay; format: functional, cell-based
Caco-2 = assay: Cytotoxicity against human Caco-2 cells assessed as reduction in cell growth incubated for 72 hrs by CCK-8 assay; format: functional, cell-based; conditions: Caco-2, 72 h
ES-2 = assay: Cytotoxicity against human ES2 cells assessed as reduction in cell growth incubated for 72 hrs by CCK-8 assay; format: functional, cell-based; conditions: ES-2, 72 h
NCI-H1299 = assay: Cytotoxicity against human NCI-H1299 cells assessed as reduction in cell growth incubated for 72 hrs by CCK-8 assay; format: functional, cell-based; conditions: NCI-H1299, 72 h
HCT-116 = assay: Antiproliferative activity against human HCT-116 cells assessed reduction in cell growth incubated for 24 hrs by MTT assay; format: functional, cell-based; conditions: HCT-116, 24 h
Coagulation factor X = Coagulation factor X (Homo sapiens, UniProt P00742); assay: Inhibition of human factor Xa
Coagulation factor X, sequence (P00742 41-179 limits assumed): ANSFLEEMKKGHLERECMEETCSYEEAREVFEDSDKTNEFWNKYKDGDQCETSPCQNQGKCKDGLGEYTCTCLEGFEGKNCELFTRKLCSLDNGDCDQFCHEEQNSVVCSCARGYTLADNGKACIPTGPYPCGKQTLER
Coagulation factor X, sequence (P00742 235-488 limits assumed): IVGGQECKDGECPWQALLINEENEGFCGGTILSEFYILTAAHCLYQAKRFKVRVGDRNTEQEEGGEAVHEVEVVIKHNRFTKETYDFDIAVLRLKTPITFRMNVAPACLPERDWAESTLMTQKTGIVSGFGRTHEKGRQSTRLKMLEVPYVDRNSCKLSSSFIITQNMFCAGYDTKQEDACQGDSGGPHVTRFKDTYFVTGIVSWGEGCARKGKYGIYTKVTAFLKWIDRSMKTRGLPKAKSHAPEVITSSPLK

BGC-823 = assay: Cytotoxicity against human BGC-823 cells assessed as reduction in cell viability incubated for 24 hrs by MTT assay; format: functional, cell-based; conditions: BGC-823, 24 h
A-375 = assay: Cytotoxicity against human A-375 cells assessed as reduction in cell growth measured after 24 hrs by MTT assay; format: functional, cell-based; conditions: A-375, 24 h
A2780 = assay: Antiproliferative activity against human A2780 cells assessed as reduction in cell growth incubated for 72 hrs by MTT assay; format: functional, cell-based; conditions: A2780, 72 h
FaDu = assay: Antiproliferative activity against human FaDu cells assessed as inhibition of cell growth incubated for 72 hrs by 3H-thymidine incorporation assay; format: functional, cell-based
U2OS = assay: Cytotoxicity against human U2OS cells assessed as reduction in cell viability incubated for 48 hrs by MTT assay; format: functional, cell-based
SAOS-2 = assay: Cytotoxicity against human SAOS-2 cells assessed as reduction in cell viability incubated for 48 hrs by MTT assay; format: functional, cell-based; conditions: SAOS-2, 48 h
MG-63 = assay: Cytotoxicity against human MG-63 cells assessed as reduction in cell viability incubated for 48 hrs by MTT assay; format: functional, cell-based; conditions: MG-63, 48 h
Phytophthora nicotianae = assay: Antifungal activity against Phytophthora nicotianae assessed a fungal growth inhibition measured after 4 to 8 days; format: functional, organism-based
Rhizoctonia solani = assay: Antifungal activity Rhizoctonia solani assessed as fungal growth inhibition measured after 4 to 8 days; format: functional, organism-based
PC-3 [6] = assay: Antiproliferative activity against human PC-3 cells assessed as reduction in cell viability incubated for 48 hrs by CCK-8 assay; format: functional, cell-based; conditions: PC-3, 48 h
[7] = Antiproliferative activity against human THLE-2 cells assessed as reduction in cell viability incubated for 48 hrs by CCK-8 assay; format: toxicity, cell-based
[8] = Selectivity index, ratio of IC50 for antiproliferative activity against human THLE-2 cells to IC50 for antiproliferative activity against human PC-3 cells

Histone deacetylase 3, sequence (O15379 whole entry): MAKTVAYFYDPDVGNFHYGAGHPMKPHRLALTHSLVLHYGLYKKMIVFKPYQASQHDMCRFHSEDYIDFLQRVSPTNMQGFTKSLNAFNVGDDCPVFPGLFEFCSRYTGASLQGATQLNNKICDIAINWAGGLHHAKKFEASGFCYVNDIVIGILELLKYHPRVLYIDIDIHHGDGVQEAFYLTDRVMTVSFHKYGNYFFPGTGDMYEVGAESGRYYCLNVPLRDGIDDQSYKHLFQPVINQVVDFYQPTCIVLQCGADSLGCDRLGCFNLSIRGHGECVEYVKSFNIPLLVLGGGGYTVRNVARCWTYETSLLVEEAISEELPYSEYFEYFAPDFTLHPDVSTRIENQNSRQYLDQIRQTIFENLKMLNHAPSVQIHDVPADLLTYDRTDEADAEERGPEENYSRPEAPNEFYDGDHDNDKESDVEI

pIC50 (Histone deacetylase 3): 6.00 | pIC50 (Histone deacetylase 1): 6.59 | pIC50 (Histone deacetylase 2): 5.61
SMILES: Cn1cc(CCN2CCN(c3cnc(C(=O)Nc4cc(-c5cccs5)ccc4[N+](=O)[O-])cn3)CC2)c2ccccc21

pIC50 (H322): 4.46 | pIC50 (A549 [1]): 4.62
SMILES: O=c1c2cc(-c3ccc(Cl)cc3)nn2cc(-c2ccccc2)n1CCN1CCOCC1

pIC50 (Coagulation factor X): 9.21
SMILES: O=C1CN(S(=O)(=O)c2ccc3cc(Cl)ccc3c2)CC2(CO)NC3(CCN(c4ccncc4)CC3)CN12 (configuration not stated)

pIC50 (HeLa): 7.05 | pIC50 (PC-3 [4]): 6.74 | pIC50 (HT-29): 7.22
SMILES: CN(CCCN(C)CCN1C(=O)c2cccc3c(N)c(N)cc(c23)C1=O)CCN1C(=O)c2cccc3c(N)c(N)cc(c23)C1=O

pIC50 (A2780): 4.86 | pIC50 (HT-29): 4.91
SMILES: C[C@H]1[C@H](C)CC[C@]2(C)CC[C@]3(C)C(=CC(=O)[C@@H]4[C@@]5(C)Cc6nccnc6[C@](C)(C(=O)OCc6ccccc6)[C@@H]5CC[C@]43C)[C@H]12
pIC50 (A-375): 5.68 | pIC50 (FaDu): < 4.52

pIC50 (PC-3 [6]): 6.03
SMILES: C[C@H](O)[C@@]1(C)CCC2[C@]3(C)CC=C4C(C)(C)c5nc(C(=O)NCCc6ccccc6)cnc5C[C@]4(C)[C@H]3CC[C@@]21C (some centres not stated)
IC50 at 48 h [7]: 26.7 µM | Ratio IC50 [8]: 28.71

Further lines, the compound ahead of its results:

SMILES: Cc1cccc(-c2cnc3cccnc3n2)c1
pIC50 (Cholinesterase): 6.30 | pIC50 (Acetylcholinesterase): 6.05

SMILES: Fc1ccc(CSc2nnc(-c3cnccn3)n2-c2ccccc2)cc1
pIC50 (SW 1116): 5.39 | pIC50 [2]: 4.82

SMILES: COC(=O)c1sc2nccnc2c1Nc1ccccc1OC
IC50 at 48 h [3]: 21.3 µM

SMILES: O=C1c2cc3ccccc3n2C(=O)C2Cc3ccncc3N12 (configuration not stated)
Activity (MCF7): 50.6%

SMILES: Fc1cccc(-c2cnc3cccnc3n2)c1
pIC50 (Cholinesterase): 6.23 | pIC50 (Acetylcholinesterase): 6.10

SMILES: CN(CCCN(C)CCN1C(=O)c2cccc3c2c(cc2nccnc23)C1=O)CCN1C(=O)c2cccc3c2c(cc2nccnc23)C1=O
pIC50 (HeLa): 7.10 | pIC50 (PC-3 [4]): 7.10 | pIC50 (HT-29): 7.70

SMILES: CC(C)N1C[C@H]2C[C@@H]1CN2c1ccc(Nc2nc(-c3ccc4cn[nH]c4c3)cn3ccnc23)cc1
pIC50 (OVCAR-5): 5.82 | pIC50 (NCI-H460): 5.83 | pIC50 (A549 [5]): 6.08 | pIC50 (SK-OV-3): 6.12 | pIC50 (SW626): 5.04 | pIC50 (HEY): 6.00 | pIC50 (Caco-2): 5.13 | pIC50 (ES-2): 5.71 | pIC50 (NCI-H1299): 6.14

SMILES: c1cn2cc(-c3ccc4cn[nH]c4c3)nc(Nc3ccc(N4CCOCC4)cc3)c2n1 [ENTOSPLETINIB]
pIC50 (OVCAR-5): 5.08 | pIC50 (NCI-H460): < 5.00 | pIC50 (A549 [5]): < 5.00 | pIC50 (SK-OV-3): < 5.00 | pIC50 (SW626): < 5.00 | pIC50 (HEY): < 5.00 | pIC50 (Caco-2): 5.16 | pIC50 (ES-2): < 5.00 | pIC50 (NCI-H1299): 5.20

SMILES: C[C@@H]1[C@]2(O[C@H]3C=C4[C@@H]5CC[C@H]6Cc7nc8c(nc7C[C@]6(C)[C@H]5C[C@@H](O)[C@]4(C)[C@]31O)C[C@@H]1CC[C@H]3C4=CC5O[C@@]6(CCC(C)(C)O6)[C@@H](C)[C@@H]5[C@@]4(C)[C@H](O)C[C@@H]3[C@@]1(C)C8)O[C@](C)(COC(=O)CNC(=O)Cc1cc(=O)oc3cc(N(C)C)ccc13)C[C@H]2O (some centres not stated)
pIC50 (HCT-116): 7.08

SMILES: CC(C)(O)CCC[C@](C)(O)C1CC[C@]2(C)[C@@H]1[C@H](O)C[C@@H]1[C@@]3(C)Cc4nccnc4C(C)(C)[C@@H]3CC[C@]12C (some centres not stated)
pIC50 (BGC-823): 4.94

SMILES: Cc1nc(C)c(C)nc1C [LIGUSTRAZINE]
IC50 (U2OS): 54.7 µg/mL (≈ 402 µM) | IC50 (SAOS-2): 24.7 µg/mL (≈ 181 µM) | IC50 (MG-63): 10.3 µg/mL (≈ 75.6 µM)

SMILES: CC(OC(=O)c1ccccc1)c1cnccn1 (configuration not stated)
EC50 (Phytophthora nicotianae): 0.187 µg/mL (≈ 0.819 µM) | EC50 (Rhizoctonia solani): 0.019 µg/mL (≈ 0.0832 µM)
